Consider 70 molecules from ChEMBL document CHEMBL3507680, “University of Dundee, Gates Library screen for HepG2 cell viability”.

A short description of this data set: Human HepG2 cell viability assay in 384 well format. The data set is classed as toxicity, cell-based. On the set-up: dose 125 nL, time 70.5 hour; concentration not given beside the values. The settings on record: HepG2 cells, read-out: Inhibition.
Take `O=C(c1ccnnc1)N1CCN2C[C@H](OCc3cccnc3)C[C@H]2C1`: the cytotoxicity at 70.5 h was -8.22%.

As to `CN1CCc2c(C#N)c(NCCN3CCOCC3)n3cnnc3c2C1`, the cytotoxicity at 70.5 h was -3.13%.

For the molecule `CCn1cc(-c2nn3c(C(F)(F)F)nnc3s2)cn1`, the cytotoxicity at 70.5 h was -16.2%.

`N#Cc1cc(F)c(NCCc2cccnc2)c(F)c1`: the cytotoxicity at 70.5 h is -4.91%.

Turning to `CC(C)n1cc(CN2CCCN(C(=O)C(C)n3cccn3)CC2)cn1` (stereo not given), the cytotoxicity at 70.5 h was -2.97%.

Turning to `O=C(CN1CCCNC1=O)N1CCCC(c2nccs2)C1` (stereo not given), the cytotoxicity at 70.5 h was -8.65%.

On to `CSCc1noc(-c2nc3c([nH]2)CCCNC3=O)n1`, for which the cytotoxicity at 70.5 h was -4.67%.

In the case of `Cn1cccc1C(O)CNC(=O)COc1ccc(Cl)cc1Cl` (stereo not given), the cytotoxicity at 70.5 h was -12%.

As for `CCOc1ccc(S(=O)(=O)NCCc2ccc(N(C)C)cc2)cc1C`, the cytotoxicity at 70.5 h is -3.6%.

Consider `CSCCN1C(=O)CC(C)(c2ccc(Br)cc2)C1=O` (stereo not given), for which the cytotoxicity at 70.5 h was -5.43%.

As for `Cc1nccnc1C1CCN(C(=O)C(C)C)CC1`, the cytotoxicity at 70.5 h is -5.9%.

Take `CC(C)COC(=O)N1[C@@H](c2ccco2)[C@@H](CO)C[C@]12CCCCNC2=O`: the cytotoxicity at 70.5 h is -9.55%.

Regarding `CN(CC1=CCCN(Cc2cccc(C#N)c2)C1)C(=O)c1ccco1`, the cytotoxicity at 70.5 h is -12.2%.

In the case of `Cc1cc(-c2cc(-c3cc(CC(=O)O)cs3)nc(N)c2C#N)oc1C`, the cytotoxicity at 70.5 h was -12.1%.

On to `CCCNc1ncc(CN2CCN(C)C(=O)C2C)cn1` (stereo not given), for which the cytotoxicity at 70.5 h was determined as 16%.

Turning to `O=C(c1ccncn1)N1CCO[C@H]2[C@@H](OCc3cccnc3)CC[C@@H]21`, the cytotoxicity at 70.5 h was -9.05%.

Turning to `CC(C)C1C(=O)NCCN1C(=O)CCCc1nc(C(C)(C)C)no1` (stereo not given), the cytotoxicity at 70.5 h is -3.75%.

Take `CCN(CC)C(CNC(=O)c1c(C)noc1C(C)C)c1ccsc1` (stereo not given): the cytotoxicity at 70.5 h was 0.627%.

Take `O=C(c1ccc(=O)[nH]n1)N1CCCC1C1CCCC1` (stereo not given): the cytotoxicity at 70.5 h is -0.243%.

Consider `COC(=O)C1CCN(C(=O)CN2CCN(c3cccc(C)c3)CC2)CC1`, for which the cytotoxicity at 70.5 h was -8.14%.

Regarding `Cc1ccccc1C(CNc1ncnc2c1CCNC2)N(C)C` (stereo not given), the cytotoxicity at 70.5 h is -7.27%.

As to `COc1ccc(NC(=O)COc2nn(C)c3nc(C)cc(C)c23)cn1`, the cytotoxicity at 70.5 h is -18.4%.

`CSCCC1c2nc[nH]c2CCN1Cc1cncn1C` (stereo not given): the cytotoxicity at 70.5 h was 33.9%.

Regarding `CS(=O)(=O)N1CCN(c2ccc(Nc3ccccn3)nn2)CC1`, the cytotoxicity at 70.5 h was -6.91%.

Take `Cc1csc(CN(C)c2cc(C)nc3c(C)c(C)nn23)n1`: the cytotoxicity at 70.5 h was -7.34%.

Take `N#Cc1ccccc1C(=O)N1C[C@@H](CN2CCCCC2)[C@@H](CO)C1`: the cytotoxicity at 70.5 h is -5.21%.

`CCC(=O)NCC(=O)NC(C)c1ccc(OCCC(C)C)cc1` (stereo not given): the cytotoxicity at 70.5 h was -2.78%.

On to `CC(C)C(=O)N1CCC2(CC1)NC(=O)[C@H]1CN(Cc3cccnc3)C[C@H]12`, for which the cytotoxicity at 70.5 h was found to be 4.61%.

For the molecule `O=c1[nH]c2nc(N3CCCC3)ncc2c(=O)n1-c1cccc(F)c1`, the cytotoxicity at 70.5 h was -16.9%.

As to `COC1CCN(c2cc(C(C)C)nc3ccnn23)C1` (stereo not given), the cytotoxicity at 70.5 h stood at 5.73%.

Regarding `Cc1nc2cc(C3CCN(Cc4cccc(F)c4F)C3)nn2c(O)c1C` (stereo not given), the cytotoxicity at 70.5 h was -20.4%.

On to `O=C(O)CN1CCC2(CCc3ccccc32)CC1`, for which the cytotoxicity at 70.5 h amounted to 13.9%.

`O=C(NCCO)C1(Cc2ccccc2-c2cccnc2)CCOCC1`: the cytotoxicity at 70.5 h was -10.7%.

As for `CN(Cc1cn2c(n1)CN(C(=O)c1cccn1C)CC2)Cc1ccco1`, the cytotoxicity at 70.5 h is 9.36%.

With `NC(=O)Cn1cc(NC(=O)N2CCCC2)cn1`, the cytotoxicity at 70.5 h is -29.6%.

Consider `O=C(c1ccnnc1)N1CCc2onc(CN3CCCC3)c2C1`, for which the cytotoxicity at 70.5 h was -3.95%.

With `Cc1cc(C(=O)N2CCn3cc(CN4CCN(C)CC4)nc3C2)no1`, the cytotoxicity at 70.5 h is -11.8%.

`COC(CNC(=O)NCc1c(C)cc(C)[nH]c1=O)c1ccccc1` (stereo not given): the cytotoxicity at 70.5 h was -12.2%.

Consider `Cc1csc2c(C3CCCN(C(=O)Cn4cncn4)C3)nc(C)n12` (stereo not given), for which the cytotoxicity at 70.5 h was -1.76%.

On to `CC(C)c1nn(C)c(N(C)C)c1CNC1CCC(O)CC1` (stereo not given), for which the cytotoxicity at 70.5 h is -6.96%.

Consider `CCC(CC)c1cc(CNC(=O)N2CCCC(N(C)C)C2)on1` (stereo not given), for which the cytotoxicity at 70.5 h was -9.56%.

Take `Cc1cc(C)n2cc(CN3CCC(N4CCN(C)C4=O)CC3)nc2n1`: the cytotoxicity at 70.5 h was -0.599%.

Take `Cc1csc(C2NC3(CCCC3)C(=O)N2CC2CC2)n1` (stereo not given): the cytotoxicity at 70.5 h is 4.39%.

For `CCOC(=O)[C@]12CCCN(Cc3nccs3)C[C@H]1CN(S(C)(=O)=O)C2`, the cytotoxicity at 70.5 h was -6.29%.

`N#Cc1cccc(C(=O)NC2CCc3c(ccc(=O)n3CC3CC3)C2)c1` (stereo not given): the cytotoxicity at 70.5 h was -2.82%.

Take `CN(C)c1cccc(C(=O)Nc2cnn(Cc3ccncc3)c2)c1`: the cytotoxicity at 70.5 h is -11.3%.

Take `CCOC(=O)c1nc(CN2CCC(NC(=O)C(C)C)CC2)cs1`: the cytotoxicity at 70.5 h is -3.69%.

In the case of `O=C1CCC(C(=O)N2CCOC(Cc3ccc(F)cc3)C2)=NN1` (stereo not given), the cytotoxicity at 70.5 h was -11.8%.

As for `Cn1c(CN2CCCC(N3CCCCCC3)C2)cc(=O)n(C)c1=O` (stereo not given), the cytotoxicity at 70.5 h is -4.65%.

On to `c1ccc(O[C@H]2CC[C@H]3[C@H]2OCCN3Cc2nccs2)nc1`, for which the cytotoxicity at 70.5 h was -9.23%.

Take `CN(C(=O)Cc1ccccc1Cl)C1CCN(c2ccccn2)CC1`: the cytotoxicity at 70.5 h amounted to 2.75%.

Turning to `COc1ccc(-c2n[nH]c(C)c2CC(=O)NCC2CCCO2)cc1` (stereo not given), the cytotoxicity at 70.5 h was 20.6%.

In the case of `CC(NCCn1cccn1)c1cc(F)ccc1F` (stereo not given), the cytotoxicity at 70.5 h is -3.98%.

Regarding `CCn1cc(NC(=O)CN2C(=O)CC(C)(C)c3ccccc32)cn1`, the cytotoxicity at 70.5 h is -4.43%.

For `Cc1cccc2c1cnn2CCC(=O)NCc1csc(C2CC2)n1`, the cytotoxicity at 70.5 h is -8.07%.

Take `Cc1[nH]ncc1CCCNC(=O)Nc1ccc(C#N)cc1`: the cytotoxicity at 70.5 h is -4.85%.

With `O=C(c1ccc(O)c(Cl)c1)N(Cc1ccncc1)C1CC1`, the cytotoxicity at 70.5 h was -2.89%.

As for `O=C([C@H]1CC[C@@H]2[C@@H](CCN2Cc2ccc(F)cc2)O1)N1CCCO1`, the cytotoxicity at 70.5 h was -9.2%.

`CN1CCN(Cc2cnc3n2CCN(C(=O)c2ccnnc2)C3)CC1`: the cytotoxicity at 70.5 h was -14.6%.

For `CCCc1nnc(NC(=O)Cc2c(C)nc(C)[nH]c2=O)s1`, the cytotoxicity at 70.5 h is -6.43%.

With `CN(Cc1cn(-c2ccccc2)nn1)C1CCCN(c2cccnn2)C1` (stereo not given), the cytotoxicity at 70.5 h was -3.67%.

As to `Cn1cc(-c2nnn3c2COC(CNCC2CCOCC2)C3)cn1` (stereo not given), the cytotoxicity at 70.5 h was -7.48%.

As for `CN(CCO)Cc1nnc(C2CCN(C(=O)C3CCOCC3)CC2)n1C`, the cytotoxicity at 70.5 h worked out at 1.69%.

As for `NC(=O)[C@H]1CCCN(c2nccc(-c3c[nH]nc3-c3cccnc3)n2)C1`, the cytotoxicity at 70.5 h was -2.79%.

Regarding `CNC(=O)CCNC(=O)c1ccccc1N1CCOCC1`, the cytotoxicity at 70.5 h was -4.86%.

On to `CC(C)(C)n1ncc2c(=O)[nH]c(N3CCN(CCO)CC3)nc21`, for which the cytotoxicity at 70.5 h is -1.33%.

On to `COCC1CN(C(=O)CC2Cc3ccccc3C2)Cc2c1cnn2C` (stereo not given), for which the cytotoxicity at 70.5 h is -5.66%.

For `CC(C)c1cnc(CN(C)C2CCN(CCS(C)(=O)=O)C2)o1` (stereo not given), the cytotoxicity at 70.5 h was 2.71%.

As to `CCS(=O)(=O)c1ncc(CN(C)CCc2ccccn2)n1CCOC`, the cytotoxicity at 70.5 h is -8.19%.

For the molecule `COc1ccc(CN2Cc3nnn(C)c3C(COCCN(C)C)C2)cc1` (stereo not given), the cytotoxicity at 70.5 h was found to be 4.07%.
